Patent publication US10308685B2, “Inhibitory peptides of viral infection” (UNIVERSITY OF TENNESSEE RESEARCH FOUNDATION, priority 2014, dated 2019)
Where a SMILES comes first, the peptide text is derived from it. Where no end group is shown, it is not given here.

Experiments:
MEF 10.1 cells = experiment: Visualization of bound biotinylated peptide on fixed MEF cells (fluorescence); format: binding, Mouse; conditions: 1.6 μg/mL, streptavidin fluorescence
Protocol: Coverslips with fixed MEF cells prepared, washed in PBS and blocked with 1% BSA/PBS for 5 min. Following a PBS wash the nuclei were stained by using Hoechst (Life Technologies Molecular Probes, Grand Island, N.Y.) 1:100 in H2O— for 30 min at 37° C. Tissues were then blocked using a casein block solution (Scytek) for 5 min, AVIDIN/Biotin blocks (VECTOR, Burlingame, Calif.) for 20 min each at room temperature (RT) followed by a 5 min PBS wash. Biotinylated GGGY-p5+14 (SEQ ID NO: 25) or p5G (control) at 1.6 μg/mL in PBS was added and the tissues incubated overnight at 4° C. Following a PBS wash Alexa Fluor 594-conjugated streptavidin (Molecular Probes) was added at a 1:200 dilution in PBS for lhr at RT. Cells were then permeabilized by addition of 0.2% Triton X-100 (Sigma) in PBS for 10 min at RT and washed with a solution of 1% BSA in PBS for 30 min. The cells were then stained with Alexa Fluor 488-conjugated phalloidin (Molecular Probes) 1:100 dilution of stock in 1% BSA/PBS, for 45 min. at RT to visualize cytoskeleton. Slides were cover-slipped using a fluorescent mounting medium (Dako, Carpinteria, Calif.) to minimize photobleaching.

MCMV [1] = format: cell-based, Murine Cytomegalovirus; conditions: for inhibition of MCMV infection (plaque reduction): 500 μg/ml, mouse embryonic fibroblasts incubated with peptide 30 min prior to virus
Protocol: Murine Cytomegalovirus (MCMV) RM4503 was cultured in vitro in MEF 10.1 cells. The virus stock was titered using plaque assay (described below) and stored at −80° C. Human Cytomegalovirus (HCMV) TB40/E was obtained from (46, 47) and cultures in vitro in HFF cells. The virus stock was titered using plaque assay and stored at −80° C. HSV-1 and HSV-2 were cultured in vitro in VERO cells. The virus stock was titered using plaque assay and stored at −80° C.
Peptides were screened for their ability to reduce viral infection using a plaque reduction assay. Cells were cultured in 12-well (VERO) or 24-well culture plates (MEF 10.1 and HFF). When the cells reached ˜80% confluence the media was removed and the cells washed once with PBS before addition of peptide. As a control, cells were incubated with PBS alone. After a 30 min of incubation with peptide in PBS, the virus was added and incubated for another 90 min (HSV and HCMV) or 60 min (MCMV). Following virus incubation the peptide/virus mixture was removed and replaced with 0.75% carboxy-methyl cellulose (Sigma Aldrich, St. Louis, Mo.)+complete media (CMC) or 0.5% agarose (Lonza, Rockland, Me.) in complete media. The plates were incubated at 37° C. in 5% CO2 for 4 days when plaques began to develop, following which they were stained with Coomassie stain (AMRESCO, Solon, Ohio). Plaques were counted manually and data analyzed using Prism 5.0 (GraphPad Software, La Jolla, Calif.). Data were expressed as % plaques relative to the average number of plaques in the PBS-treated wells.
In the initial screening assays all peptides were tested at a single concentration (500 μg/ml) using a plaque-reduction assay, in which mouse embryonic fibroblasts were incubated with the peptides for 30 min prior to the addition of virus.
In the infectivity assays described above the peptide and virus were co-incubated with the cells. Therefore to ensure the peptide was not directly inactivating the virus, MCMV was incubated with 100 μM (˜20× the IC50) peptide at 37° C. for 1 h, diluted to an ineffective peptide concentration (1 μM) and fibroblast infection rates measured.
To determine at which stage of the MCMV entry cycle the peptide interferes, four different peptide treatment protocols were tested, 1) 30 min. prior to infection (pre-adsorption) 2) simultaneously with virus (during adsorption) 3) after letting the virus adsorb to the cells at 4° C. for lhr (post adsorption) or 4) after allowing the virus to fuse with the cell membrane at 37° C. for lhr (post fusion) (FIG. 3(B)).

trypsin = experiment: Proteolytic stability: trypsin incubation, then HCMV luciferase assay on MRC-5 cells; format: in vitro ADME; conditions: 200 μM peptide, 200 μg/ml trypsin, 37° C., 30 and 60 minutes
Protocol: FIG. 8. Proteolytic stability of p5 and Dp5R. 200 μM of each peptide, CGGY-p5 (SEQ ID NO: 22) and GGGY-Dp5R (SEQ ID NO: 24, D form), was incubated with 200 μg/ml of trypsin for 30 minutes and 60 minutes then added to MRC-5 cells 30 minutes prior to the addition of virus. Data is representative of three separate experiments with three repeats ±SD.
Without wishing to be bound by any particular theory, this increased binding could be due to proteolytic stability of the D-form. Trypsin was thus used to test the proteolytic stability of p5 and Dp5R. More particularly, each peptide was incubated at 37° C. for 30 minutes and 60 minutes with 200 μg/ml of trypsin then added to cells 30 minutes before the addition of virus.

[2] = target: HCMV expressing luciferase (Towne strain); format: cell-based, Human Cytomegalovirus; conditions: MRC-5 cells, peptide 30 min prior to virus
Protocol: A recombinant luciferase-expressing Towne strain of HCMV was used for each experiment. To obtain the virus, the virus was cultured in vitro on HFF cells. The virus was titered using a standard plaque assay.
Cells were cultured according to methods known to those of skill in the art. Briefly, human fetal lung fibroblasts (MRC-5, ATCC) were cultured in minimum essential media (MEM, HyClone) supplemented with fetal bovine serum (FBS, HyClone), and L-glutamine. Human foreskin fibroblasts (HFF, ATCC) were cultured in dulbecco's modified eagle medium (DMEM, GE HyClone) supplemented with FBS, L-glutamine and sodium pyruvate. Human aortic endothelial cells were cultured in EGM-2 Bullet Kit (Lonza) supplemented with FBS. Human retinal pigment epithelia cells (ARPE-19) were cultured in DMEM and Hams F12 medium (Lonza) and supplemented with FBS.
Efficacy of viral reduction was measured using a luciferase assay with HCMV expressing luciferase virus. Cells were cultured in a 24-well plate until they reached ˜80% confluency. The cells were washed with phosphate buffered saline (PBS) then treated with peptide. The control cells were treated with PBS supplemented with FBS. After peptide incubation, virus was added (100 RLU for MRC-5, HFF and 1000 RLU for HAEC, ARPE-19) for 1 h. […] After the addition of LAR to the supernatant the luminescence was quantified using a plate reader (BioTek). […]

[3] = mouse, in vivo; cited from earlier work
MCMV [4] = experiment: Interference of peptide mediated reduction by heparin (MCMV plaque reduction); format: cell-based, Murine Cytomegalovirus
Protocol: Peptide GGGY-p5+14 (SEQ ID NO: 25) (at 100 μM) was pre-incubated with heparin sodium salt (Acros Organics, NJ) at different concentrations for 1 h at 37° C. Following which the heparin/peptide mix was added to the cells and incubated for 30 min at 37° C. Following the incubation, the supernatant was aspirated and cells washed once with PBS to remove unbound/excess heparin or peptide. The cells were subsequently infected with ˜100 pfu/well of MCMV. To test whether heparin treatment of cells interferes with virus infection, MEF 10.1 cells in a 24 well dish were pre-incubated with different concentrations of heparin for 1 hour and washed as described above. Following the pre-incubation infection was initiated as mentioned above. Finally to test the effect of heparin treatment on the infectivity of virus, MCMV was incubated with different concentration of heparin for lhr before infecting cells. For all these treatments, the virus was removed lhr post infection and cells overlaid with CMC. Plates were incubated for 4 days before staining and counting the plaques. Plaque reduction assay was performed as mentioned above.

CGGYSGAQGAQAGQAGQAQGAQGAQAGQAGQ (also: biotinylated) [CGGY-p5G]
binding to mouse fibroblasts in culture (MEF 10.1 cells): did not bind to cells | inhibition of MCMV infection (plaque reduction) (MCMV [1]): did not reduce MCMV infection

CGGYSEAQEAQAEQAEQAQEAQEAQAEQAEQ (Peptide CGGY-p5e Synthetic Construct)
inhibition of MCMV infection (plaque reduction) (MCMV [1]): did not reduce MCMV infection

GGGYSRAQRAQARQARQAQRAQRAQARQARQ (CGGY-p5R Peptide Synthetic Construct) [GGGY-p5R]
blocks viral infection better compared to peptide p5 (CGGY-p5) (MCMV [1]; 500 μg/ml screen, FIG. 1(A)): 4 fold

C[C@@H](NC(=O)[C@@H](CCC(N)=O)NC(=O)[C@@H](C)NC(=O)[C@@H](CCCNC(=N)N)NC(=O)[C@@H](CCC(N)=O)NC(=O)[C@@H](C)NC(=O)[C@@H](CCCNC(=N)N)NC(=O)[C@@H](CCC(N)=O)NC(=O)[C@@H](C)NC(=O)[C@@H](CCC(N)=O)NC(=O)[C@@H](CCCNC(=N)N)NC(=O)[C@@H](C)NC(=O)[C@@H](CCC(N)=O)NC(=O)[C@@H](CCCNC(=N)N)NC(=O)[C@@H](C)NC(=O)[C@@H](CCC(N)=O)NC(=O)[C@@H](C)NC(=O)[C@@H](CCCNC(=N)N)NC(=O)[C@@H](CCC(N)=O)NC(=O)[C@@H](C)NC(=O)[C@@H](CCCNC(=N)N)NC(=O)[C@@H](CO)NC(=O)[C@@H](Cc1ccc(O)cc1)NC(=O)CNC(=O)CNC(=O)CN)C(=O)N[C@H](CCCNC(=N)N)C(=O)N[C@H](CCC(N)=O)C(=O)N[C@H](C)C(=O)N[C@H](CCCNC(=N)N)C(=O)N[C@H](CCC(N)=O)C(=O)O [GGGY-Dp5R] (HELM PEPTIDE1{G.G.G.[dY].[dS].[dR].[dA].[dQ].[dR].[dA].[dQ].[dA].[dR].[dQ].[dA].[dR].[dQ].[dA].[dQ].[dR].[dA].[dQ].[dR].[dA].[dQ].[dA].[dR].[dQ].[dA].[dR].[dQ]}$$$$V2.0; N-terminus and C-terminus assumed)
ability to reduce infection after incubation with trypsin (trypsin): retained its ability to reduce infection | IC50 [2]: ~75 µM

CGGYSLAQLAQALQALQAQLAQLAQALQALQ (Peptide CGGY-p5L Synthetic Construct)
inhibition of MCMV infection (plaque reduction) (MCMV [1]): did not reduce MCMV infection

CGGYSKAQKAQAKQAKQAQKAQKAQAKQAKQ [CGGY-p5]
ability to reduce infection after incubation with trypsin (trypsin): only able to reduce viral infection in cells when it had not been treated with trypsin | IC50 [2]: ~60 µM | peptide binding to GAGs expressed in healthy organs or tissues [3]: no evidence of peptide binding to GAGs expressed in healthy organs or tissues

MPRRRRIRRRQK (Peptide G2 Synthetic Construct) [reference compound]
reduction in infection (MCMV) (MCMV [1]; 10 μM): ineffective | inhibition of MCMV infection (MCMV [1]; 100 μM): effectively inhibited

heparin sodium salt
MCMV infection after pre-incubation of the cells with heparin (MCMV [4]; cells pre-incubated with heparin 1 hour prior to virus addition): did not alter MCMV infection | reduction of virus infection after pre-incubation of virus with heparin (MCMV [4]; heparin concentrations >2 μg/mL): > 80%
